Data reported in PubChem BioAssay AID1963979 (Molecular Pharmacology Branch, DTP, NCI, 2024).

Test system: 361931-004-R-J1-PDC multicell spheroid viability
Assay: Anticancer human tumor 361931-004-R-J1-PDC patient-derived colon adenocarcinoma cell line growth inhibition [PI3K]
Details: for IC50: curve of first compound; for viability, T/C: stronger effect = lower value
How it was run: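 Three cell types, namely tumor cells, endothelial cells and mesenchymal stem cells, formed each spheroid. Combinations with four PI3K inhibitors were screened at clinically achievable concentrations decreasing by half-log, and spheroid viability was recorded.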

[1] = second compound 0.0316 µM, first compound 0.000316 µM
[2] = second compound 0.0316 µM, first compound 0.001 µM
[3] = second compound 0.0316 µM, first compound 0.00316 µM
[4] = second compound 0.0316 µM, first compound 0.01 µM
[5] = second compound 0.0316 µM, first compound 0.0316 µM
[6] = second compound 0.0316 µM, first compound 0.1 µM
[7] = second compound 0.1 µM, first compound 0.000316 µM
[8] = second compound 0.1 µM, first compound 0.001 µM
[9] = second compound 0.1 µM, first compound 0.00316 µM
[10] = second compound 0.1 µM, first compound 0.01 µM
[11] = second compound 0.1 µM, first compound 0.0316 µM
[12] = second compound 0.1 µM, first compound 0.1 µM
[13] = second compound 0.316 µM, first compound 0.000316 µM
[14] = second compound 0.316 µM, first compound 0.001 µM
[15] = second compound 0.316 µM, first compound 0.00316 µM
[16] = second compound 0.316 µM, first compound 0.01 µM
[17] = second compound 0.316 µM, first compound 0.0316 µM
[18] = second compound 0.316 µM, first compound 0.1 µM
[19] = second compound 1 µM, first compound 0.000316 µM
[20] = second compound 1 µM, first compound 0.001 µM
[21] = second compound 1 µM, first compound 0.00316 µM
[22] = second compound 1 µM, first compound 0.01 µM
[23] = second compound 1 µM, first compound 0.0316 µM
[24] = second compound 1 µM, first compound 0.1 µM
[25] = second compound 3.16 µM, first compound 0.000316 µM
[26] = second compound 3.16 µM, first compound 0.001 µM
[27] = second compound 3.16 µM, first compound 0.00316 µM
[28] = second compound 3.16 µM, first compound 0.01 µM
[29] = second compound 3.16 µM, first compound 0.0316 µM
[30] = second compound 3.16 µM, first compound 0.1 µM
[31] = second compound 10 µM, first compound 0.000316 µM
[32] = second compound 10 µM, first compound 0.001 µM
[33] = second compound 10 µM, first compound 0.00316 µM
[34] = second compound 10 µM, first compound 0.01 µM
[35] = second compound 10 µM, first compound 0.0316 µM
[36] = second compound 10 µM, first compound 0.1 µM
[37] = second compound 0.00316 µM, first compound 0.0316 µM
[38] = second compound 0.00316 µM, first compound 0.1 µM
[39] = second compound 0.00316 µM, first compound 0.316 µM
[40] = second compound 0.00316 µM, first compound 1 µM
[41] = second compound 0.01 µM, first compound 0.0316 µM
[42] = second compound 0.01 µM, first compound 0.1 µM
[43] = second compound 0.01 µM, first compound 0.316 µM
[44] = second compound 0.01 µM, first compound 1 µM
[45] = second compound 0.0316 µM, first compound 0.316 µM
[46] = second compound 0.0316 µM, first compound 1 µM
[47] = second compound 0.1 µM, first compound 0.316 µM
[48] = second compound 0.1 µM, first compound 1 µM
[49] = second compound 0.316 µM, first compound 0.316 µM
[50] = second compound 0.316 µM, first compound 1 µM
[51] = second compound 1 µM, first compound 0.316 µM
[52] = second compound 1 µM, first compound 1 µM
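Note: spheroids exposed to agents for seven days before readout.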

`Cn1ncnc1[C@H]1c2n[nH]c(=O)c3cc(F)cc(c23)N[C@@H]1c1ccc(F)cc1` + CC(Nc1ncnc2nc[nH]c12)c1cc2cccc(Cl)c2c(=O)n1-c1ccccc1 gave an IC50 (second compound 0.0316 µM) of over 100 nM, an IC50 (second compound 0.1 µM) of over 100 nM and an IC50 (second compound 0.316 µM) of over 100 nM. For the same compound, the IC50 (second compound 1 µM) was over 100 nM, the IC50 (second compound 3.16 µM) was over 100 nM and the IC50 (second compound 10 µM) was over 100 nM. It also gave a viability, T/C [1] of 97.9%, a viability, T/C [2] of 106% and a viability, T/C [3] of 102%. For the same compound, the viability, T/C [4] was 99.1%, the viability, T/C [5] was 107% and the viability, T/C [6] was 106%. It also gave a viability, T/C [7] of 110%, a viability, T/C [8] of 104% and a viability, T/C [9] of 109%. The viability, T/C [10] was 103%, the viability, T/C [11] was 101% and the viability, T/C [12] was 108%. For the same compound, the viability, T/C [13] was 107%, the viability, T/C [14] was 108% and the viability, T/C [15] was 103%. For the same compound, the viability, T/C [16] was 97%, the viability, T/C [17] was 105% and the viability, T/C [18] was 100%. For the same compound, the viability, T/C [19] was 99.5%, the viability, T/C [20] was 99% and the viability, T/C [21] was 102%. It also gave a viability, T/C [22] of 95.2%, a viability, T/C [23] of 97.8% and a viability, T/C [24] of 95.2%. For the same compound, the viability, T/C [25] was 102%, the viability, T/C [26] was 111% and the viability, T/C [27] was 107%. It also gave a viability, T/C [28] of 101%, a viability, T/C [29] of 102% and a viability, T/C [30] of 102%. For the same compound, the viability, T/C [31] was 102%, the viability, T/C [32] was 113% and the viability, T/C [33] was 102%. It also gave a viability, T/C [34] of 100%, a viability, T/C [35] of 102% and a viability, T/C [36] of 98.5%.
`Cn1ncnc1[C@H]1c2n[nH]c(=O)c3cc(F)cc(c23)N[C@@H]1c1ccc(F)cc1` + Cc1nc(NC(=O)N2CCCC2C(N)=O)sc1-c1ccnc(C(C)(C)C(F)(F)F)c1 was tested, and the IC50 (second compound 0.0316 µM) was over 100 nM, the IC50 (second compound 0.1 µM) was over 100 nM and the IC50 (second compound 0.316 µM) was over 100 nM. The IC50 (second compound 1 µM) was over 100 nM, the IC50 (second compound 3.16 µM) was over 100 nM and the IC50 (second compound 10 µM) was 48.4 nM. It also gave a viability, T/C [1] of 98%, a viability, T/C [2] of 93.1% and a viability, T/C [3] of 97.3%. The viability, T/C [4] was 93%, the viability, T/C [5] was 79.8% and the viability, T/C [6] was 85.3%. The viability, T/C [7] was 109%, the viability, T/C [8] was 93.6% and the viability, T/C [9] was 94.5%. It also gave a viability, T/C [10] of 93.2%, a viability, T/C [11] of 86.5% and a viability, T/C [12] of 76.8%. It also gave a viability, T/C [13] of 98.2%, a viability, T/C [14] of 86.1% and a viability, T/C [15] of 81.7%. It also gave a viability, T/C [16] of 81.8%, a viability, T/C [17] of 83.5% and a viability, T/C [18] of 80.8%. The viability, T/C [19] was 87.3%, the viability, T/C [20] was 73.4% and the viability, T/C [21] was 84.5%. For the same compound, the viability, T/C [22] was 79.4%, the viability, T/C [23] was 90.1% and the viability, T/C [24] was 70.3%. The viability, T/C [25] was 70.4%, the viability, T/C [26] was 81.8% and the viability, T/C [27] was 77.4%. The viability, T/C [28] was 66.9%, the viability, T/C [29] was 72.6% and the viability, T/C [30] was 62.2%. For the same compound, the viability, T/C [31] was 62.2%, the viability, T/C [32] was 54.5% and the viability, T/C [33] was 54%. The viability, T/C [34] was 56.6%, the viability, T/C [35] was 47.9% and the viability, T/C [36] was 49.2%.
`CCN1CCN(Cc2ccc(Nc3ncc(F)c(-c4cc(F)c5nc(C)n(C(C)C)c5c4)n3)nc2)CC1` + CC(Nc1ccc2c(c1)OCCn1cc(N3C(=O)OCC3C(F)F)nc1-2)C(N)=O was tested, and the IC50 (second compound 0.00316 µM) was over 1000 nM, the IC50 (second compound 0.01 µM) was over 1000 nM and the IC50 (second compound 0.0316 µM) was over 1000 nM. It also gave an IC50 (second compound 0.1 µM) of 504 nM, an IC50 (second compound 0.316 µM) of 142 nM and an IC50 (second compound 1 µM) of 146 nM. The viability, T/C (second compound 0.00316 µM, first compound 0.00316 µM) was 96.2%, the viability, T/C (second compound 0.00316 µM, first compound 0.01 µM) was 100% and the viability, T/C [37] was 91.2%. For the same compound, the viability, T/C [38] was 86.9%, the viability, T/C [39] was 86.2% and the viability, T/C [40] was 64.3%. The viability, T/C (second compound 0.01 µM, first compound 0.00316 µM) was 104%, the viability, T/C (second compound 0.01 µM, first compound 0.01 µM) was 99.1% and the viability, T/C [41] was 77.5%. For the same compound, the viability, T/C [42] was 81.4%, the viability, T/C [43] was 86.1% and the viability, T/C [44] was 56.7%. The viability, T/C [3] was 91.4%, the viability, T/C [4] was 98.2% and the viability, T/C [5] was 76.2%. It also gave a viability, T/C [6] of 80%, a viability, T/C [45] of 68% and a viability, T/C [46] of 55.4%. The viability, T/C [9] was 90%, the viability, T/C [10] was 87.6% and the viability, T/C [11] was 71.7%. It also gave a viability, T/C [12] of 63.4%, a viability, T/C [47] of 67.2% and a viability, T/C [48] of 36.4%. For the same compound, the viability, T/C [15] was 75.7%, the viability, T/C [16] was 86.4% and the viability, T/C [17] was 62.8%. The viability, T/C [18] was 55%, the viability, T/C [49] was 42.5% and the viability, T/C [50] was 33.1%. For the same compound, the viability, T/C [21] was 75.4%, the viability, T/C [22] was 75.1% and the viability, T/C [23] was 54.4%. It also gave a viability, T/C [24] of 56.1%, a viability, T/C [51] of 45% and a viability, T/C [52] of 32.2%.
`CC(Cn1ccc(-c2ccc(C#N)c(Cl)c2)n1)NC(=O)c1cc(C(C)O)[nH]n1` (stereo not drawn) + CC(Nc1ccc2c(c1)OCCn1cc(N3C(=O)OCC3C(F)F)nc1-2)C(N)=O gave an IC50 (second compound 0.00316 µM) of over 10000 nM, an IC50 (second compound 0.01 µM) of over 10000 nM and an IC50 (second compound 0.0316 µM) of over 10000 nM. It also gave an IC50 (second compound 0.1 µM) of over 10000 nM, an IC50 (second compound 0.316 µM) of over 10000 nM and an IC50 (second compound 1 µM) of over 10000 nM. The viability, T/C [37] was 103%, the viability, T/C [38] was 106% and the viability, T/C [39] was 109%. For the same compound, the viability, T/C [40] was 110%, the viability, T/C (second compound 0.00316 µM, first compound 3.16 µM) was 92.2% and the viability, T/C (second compound 0.00316 µM, first compound 10 µM) was 102%. The viability, T/C [41] was 98.3%, the viability, T/C [42] was 113% and the viability, T/C [43] was 102%. It also gave a viability, T/C [44] of 93.7%, a viability, T/C (second compound 0.01 µM, first compound 3.16 µM) of 110% and a viability, T/C (second compound 0.01 µM, first compound 10 µM) of 98.6%. It also gave a viability, T/C [5] of 102%, a viability, T/C [6] of 103% and a viability, T/C [45] of 105%. The viability, T/C [46] was 111%, the viability, T/C (second compound 0.0316 µM, first compound 3.16 µM) was 104% and the viability, T/C (second compound 0.0316 µM, first compound 10 µM) was 90.3%. It also gave a viability, T/C [11] of 96%, a viability, T/C [12] of 99.2% and a viability, T/C [47] of 93.5%. For the same compound, the viability, T/C [48] was 97.5%, the viability, T/C (second compound 0.1 µM, first compound 3.16 µM) was 79.3% and the viability, T/C (second compound 0.1 µM, first compound 10 µM) was 72%. For the same compound, the viability, T/C [17] was 97.8%, the viability, T/C [18] was 92.1% and the viability, T/C [49] was 98.8%. It also gave a viability, T/C [50] of 93.9%, a viability, T/C (second compound 0.316 µM, first compound 3.16 µM) of 86.1% and a viability, T/C (second compound 0.316 µM, first compound 10 µM) of 86.8%. The viability, T/C [23] was 82.2%, the viability, T/C [24] was 75.9% and the viability, T/C [51] was 80.2%. It also gave a viability, T/C [52] of 85.8%, a viability, T/C (second compound 1 µM, first compound 3.16 µM) of 70.6% and a viability, T/C (second compound 1 µM, first compound 10 µM) of 57.5%.
